Experimental data reported in publication PMC11938873 (Science Progress, 2025).

Key:
IvAIS1 [1] = experiment: GC-MS product assay, isoeugenol formation; assay type: biochemical, Illicium verum; conditions: NADPH co-substrate; pH 7.0, 45 °C
IvAIS1 [2] = experiment: GC-MS product assay, t-anol formation; assay type: biochemical, Illicium verum; conditions: NADPH co-substrate; pH 7.0, 40 °C

Row | Km (IvAIS1 [1]) | Km (IvAIS1 [2]) | SMILES
1 | 438 ± 44.3 µM |  | COc1cc(/C=C/COC(C)=O)ccc1O [coniferyl acetate]
2 |  | 480 ± 86.6 µM | CC(=O)OC/C=C/c1ccc(O)cc1 [coumaryl acetate]
